Assay results taken from patent publication US20250361274A1, “PEPTIDE AND PEPTIDE-CONTAINING AGENT” (PEPTIDREAM INC., priority 2022, published 2025).
Numbered stars: 1 amine (or outer) side, 2 acyl side, 3 side chain; on linkers, the order of the positions; unused ones are H or OH. Bridge positions count the residues as written; N and C are the ends. Square brackets hold non-standard residues; d marks the D form. Peptide text beside a SMILES is read from it. ξ: configuration not given here. X2 = O=C(C[C@@H](Cc1ccc(-c2ccccc2)cc1)C(=O)[*:2])[C@@H]1CCCN1[*:1]; Phe(4-COOH) = N[C@@H](Cc1ccc(C(=O)O)cc1)C(=O)O; Bip = N[C@@H](Cc1ccc(-c2ccccc2)cc1)C(=O)O; Nle(6-COOH) = N[C@@H](CCCCC(=O)O)C(=O)O; X1 = N=C(CN)NCCC[C@H](N[*:1])C(=O)[*:2]; Ala(4-THP) = N[C@@H](CC1CCOCC1)C(=O)O; ξE = NC(CCC(=O)O)C(=O)O; βAla = NCCC(=O)O

How the values were obtained:
Format in all cases: cell-based
BMP6 = target: T1, BMP6 (Homo sapiens, UniProt P22004); assay: BMP family signal transduction inhibition (SMAD1 phosphorylation), BMP6 stimulus
T1 sequence (P22004 375-513): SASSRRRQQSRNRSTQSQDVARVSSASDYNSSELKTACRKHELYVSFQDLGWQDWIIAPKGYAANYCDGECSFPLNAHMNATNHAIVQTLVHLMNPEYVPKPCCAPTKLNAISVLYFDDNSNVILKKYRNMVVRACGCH
Source text: (§1) In the present Example, BMP4 signal transduction inhibition peptide No. 177, peptide No. 29986 (SEQ ID NO: 277 (Example 8)), and peptide SEQ ID NO: 417 (Example 6) synthesized in Example 2, Example 8, and Example 6 were verified in the same manner as in Example 13 in order to confirm presence or absence of signal transduction inhibitory activities obtained by BMPs 2, 5, 6, 9, 12, and 14 belonging to the respective BMP families.
(§2) Regarding the concentrations of the respective BMPs in the evaluation, 0.3 nM of BMP2, 2 nM of BMP5, 3 nM of BMP6, 10 nM of BMP9 and BMP12, and 0.6 nM of BMP14 were added, followed by application of stimulus.
(§3) Regarding No. 177, the concentrations of the peptides were as follows. Specifically, eight concentrations of the peptides were used at a common ratio of 1/3 starting from 10 nM (BMP2), starting from 200 nM (BMP5), starting from 100 nM (BMP6), starting from 1,000 nM (BMP9 and BMP12), and starting from 60 nM (BMP14). The evaluation was performed in the same manner as in Example 11 except for the above points. Note that recombinant Human Noggin Protein (R&D) as a positive control was used at the same concentration as the peptide.
(§4) Regarding the peptide SEQ ID NO: 277 (Example 8), the concentrations of the peptides were as follows. […]

BMP2 = target: T2, BMP2 (Homo sapiens, UniProt P12643); assay: BMP family signal transduction inhibition (SMAD1 phosphorylation), BMP2 stimulus
T2 sequence (P12643 283-396): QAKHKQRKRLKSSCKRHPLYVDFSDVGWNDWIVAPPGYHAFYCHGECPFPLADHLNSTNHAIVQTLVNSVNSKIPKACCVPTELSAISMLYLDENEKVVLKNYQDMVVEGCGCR
Source text: as §1, §2, §3, §4

BMP5 = target: T3, BMP5 (Homo sapiens, UniProt P22003); assay: BMP family signal transduction inhibition (SMAD1 phosphorylation), BMP5 stimulus
T3 sequence (P22003 317-454): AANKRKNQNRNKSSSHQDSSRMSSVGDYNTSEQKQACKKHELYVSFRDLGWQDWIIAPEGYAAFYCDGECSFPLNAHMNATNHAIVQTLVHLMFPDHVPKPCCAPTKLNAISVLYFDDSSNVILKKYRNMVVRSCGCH
Source text: as §1, §2, §3, §4

CC(C)[C@@H]1NC(=O)[C@H](CCCNC(=N)N)NC(=O)[C@H](CCCCC(=O)O)NC(=O)CSC[C@@H](C(=O)NCCC(=O)NC(CCC(=O)O)C(=O)O)NC(=O)[C@H](CO)NC(=O)[C@H](Cc2ccc(C(=O)O)cc2)NC(=O)[C@H](Cc2ccc(C(=O)O)cc2)NC(=O)[C@H](Cc2ccc(O)cc2)NC(=O)[C@H](Cc2ccc(-c3ccccc3)cc2)CC(=O)[C@@H]2CCCN2C(=O)[C@H](Cc2ccc(O)cc2)NC(=O)[C@@H]2CCCN2C(=O)[C@H](Cc2ccc(-c3ccccc3)cc2)NC(=O)[C@H](CCCNC(=N)CN)NC(=O)[C@H](CC(=O)O)NC(=O)[C@H](CC2CCOCC2)NC(=O)[C@H](Cc2ccc(C(=O)O)cc2)NC1=O (stereo partly drawn) [SEQ ID No. 177] ({CH2CO}-[Nle(6-COOH)]RV[Phe(4-COOH)][Ala(4-THP)]D[X1][Bip]PY[X2]Y[Phe(4-COOH)][Phe(4-COOH)]SC[βAla][ξE]-OH; thioether N-16)
BMP6 signal transduction inhibitory activity (in words) (BMP6): signal transduction inhibitory activities of BMP2, BMP5, and BMP6
BMP2 signal transduction inhibitory activity (in words) (BMP2): signal transduction inhibitory activities of BMP2, BMP5, and BMP6
BMP5 signal transduction inhibitory activity (in words) (BMP5): signal transduction inhibitory activities of BMP2, BMP5, and BMP6
